{
  "source": "ChEMBL document CHEMBL2074467",
  "about": "“Transport characteristics of differently charged cephalosporin antibiotics in oocytes expressing the cloned intestinal peptide transporter PepT1 and in human intestinal Caco-2 cells” (J Pharmacol Exp Ther, 1996)",
  "type_in_all_cases": "functional, cell-based",
  "key": {"[1]": {"biological_target": "T1, Solute carrier family 15 member 1 (Homo sapiens) (UniProt P46059)", "T1 sequence (whole entry)": "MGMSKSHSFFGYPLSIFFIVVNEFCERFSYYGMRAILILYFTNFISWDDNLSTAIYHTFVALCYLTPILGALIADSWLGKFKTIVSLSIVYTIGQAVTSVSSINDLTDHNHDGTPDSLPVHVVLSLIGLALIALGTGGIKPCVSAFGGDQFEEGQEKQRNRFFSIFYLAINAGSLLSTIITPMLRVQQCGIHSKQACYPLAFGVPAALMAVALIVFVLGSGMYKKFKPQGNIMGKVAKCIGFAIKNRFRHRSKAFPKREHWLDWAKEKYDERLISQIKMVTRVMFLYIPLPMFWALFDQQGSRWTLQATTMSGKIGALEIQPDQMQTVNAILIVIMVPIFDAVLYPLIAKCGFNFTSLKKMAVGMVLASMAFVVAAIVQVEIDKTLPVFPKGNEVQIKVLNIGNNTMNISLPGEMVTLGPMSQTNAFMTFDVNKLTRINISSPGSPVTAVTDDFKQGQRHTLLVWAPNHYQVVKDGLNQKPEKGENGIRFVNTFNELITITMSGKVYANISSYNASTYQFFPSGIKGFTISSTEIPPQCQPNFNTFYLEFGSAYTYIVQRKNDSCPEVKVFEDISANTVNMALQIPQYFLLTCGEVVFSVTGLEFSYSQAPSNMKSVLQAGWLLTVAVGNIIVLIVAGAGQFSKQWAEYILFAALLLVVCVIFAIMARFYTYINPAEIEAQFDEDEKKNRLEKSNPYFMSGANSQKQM", "assay": "TP_TRANSPORTER: inhibition of Cefadroxil uptake (apical pH 6.5, Cefadroxil: 1000 uM, Loracarbef: 10000 uM) in Caco-2 cells", "design": "scale not given: the % may be the effect or the level left"}, "[2]": {"biological_target": "T1, Solute carrier family 15 member 1 (Homo sapiens)", "assay": "TP_TRANSPORTER: inhibition of Cefadroxil uptake (apical pH 5.5, Cefadroxil: 1000 uM, Loracarbef: 10000 uM) in Caco-2 cells", "design": "scale not given: the % may be the effect or the level left"}, "[3]": {"biological_target": "T2, Solute carrier family 15 member 1 (Homo sapiens, UniProt P46059)", "T2 sequence (P46059 whole entry)": "T1 sequence (whole entry)", "assay": "TP_TRANSPORTER: inhibition of Cefixim uptake in Caco-2 cells"}, "[4]": {"biological_target": "T2, Solute carrier family 15 member 1", "assay": "TP_TRANSPORTER: inhibition of Cefadroxil uptake in Caco-2 cells"}, "[5]": {"biological_target": "T1, Solute carrier family 15 member 1 (Homo sapiens)", "assay": "TP_TRANSPORTER: inhibition of Cefadroxil uptake (apical pH 6.5, Cefadroxil: 1000 uM, Amoxicillin: 10000 uM) in Caco-2 cells", "design": "scale not given: the % may be the effect or the level left"}, "[6]": {"biological_target": "T1, Solute carrier family 15 member 1 (Homo sapiens)", "assay": "TP_TRANSPORTER: inhibition of Cefadroxil uptake (apical pH 5.5, Cefadroxil: 1000 uM, Amoxicillin: 10000 uM) in Caco-2 cells", "design": "scale not given: the % may be the effect or the level left"}},
  "data": [
    {"molecule": "N[C@@H](C(=O)N[C@@H]1C(=O)N2C(C(=O)O)=C(Cl)CC[C@H]12)c1ccccc1", "values": [
      {"measurement": "Activity", "setting": "[1]", "value": 60.3, "unit": "%"},
      {"measurement": "Activity", "setting": "[2]", "value": 72.6, "unit": "%"}
    ]},
    {"molecule": "CC1=C(C(=O)O)N2C(=O)[C@@H](NC(=O)[C@H](N)c3ccc(O)cc3)[C@H]2SC1", "note": "[CEFADROXIL]", "values": [
      {"measurement": "Ki", "setting": "[3]", "value": 1450, "unit": "µM"}
    ]},
    {"molecule": "C=CC1=C(C(=O)O)N2C(=O)[C@@H](NC(=O)/C(=N\\OCC(=O)O)c3csc(N)n3)[C@H]2SC1", "note": "[CEFIXIME]", "values": [
      {"measurement": "Ki", "setting": "[4]", "value": 1310, "unit": "µM"}
    ]},
    {"molecule": "CC1(C)S[C@@H]2[C@H](NC(=O)[C@H](N)c3ccc(O)cc3)C(=O)N2[C@H]1C(=O)O", "values": [
      {"measurement": "Activity", "setting": "[5]", "value": 62.9, "unit": "%"},
      {"measurement": "Activity", "setting": "[6]", "value": 85.7, "unit": "%"}
    ]}
  ]
}
